Measurements taken from the NIST ThermoML archive (doi:10.1021/acs.jced.8b00132).
Where “and” joins values, the source holds several entries; their conditions need not be identical. Identical values can stand only once.

Settings: Liquid, transient hot wire

O=C(C(F)(F)C(F)(F)F)C(F)(C(F)(F)F)C(F)(F)F [dodecafluoro-2-methylpentan-3-one]
Settings	thermal conductivity
182.75 K, 277 kPa	0.07883 W/m/K
182.75 K, 315 kPa	0.07859 W/m/K
182.89 K, 13189 kPa	0.08133 W/m/K
182.89 K, 19887 kPa	0.08218 W/m/K
182.89 K, 19910 kPa	0.08244 W/m/K
182.89 K, 21592 kPa	0.08301 W/m/K
182.89 K, 21600 kPa	0.08295 W/m/K
182.9 K, 13187 kPa	0.08114 W/m/K
183.09 K, 352 kPa	0.0792 W/m/K
183.09 K, 355 kPa	0.07913 W/m/K
183.16 K, 13354 kPa	0.08121 W/m/K
183.16 K, 13358 kPa	0.08178 W/m/K
183.18 K, 6554 kPa	0.07996 W/m/K
183.18 K, 6555 kPa	0.08035 W/m/K
183.19 K, 88 kPa	0.07924 W/m/K
183.19 K, 92 kPa	0.07941 W/m/K
183.21 K, 21596 kPa	0.08274 W/m/K
183.21 K, 21614 kPa	0.08282 W/m/K
183.22 K, 13197 kPa	0.08104 W/m/K
183.22 K, 13203 kPa	0.08122 W/m/K
183.22 K, 19909 kPa	0.08195 W/m/K
183.22 K, 19917 kPa	0.08246 W/m/K
183.46 K, 394 kPa	0.07899 W/m/K
183.47 K, 372 kPa	0.07904 W/m/K
183.49 K, 13357 kPa	0.0812 W/m/K
183.49 K, 13358 kPa	0.08133 W/m/K
183.51 K, 6548 kPa	0.08023 W/m/K
183.51 K, 6554 kPa	0.08027 W/m/K
183.52 K, 86 kPa	0.07888 W/m/K
183.53 K, 84 kPa	0.07899 W/m/K
183.57 K, 19904 kPa	0.08223 W/m/K
183.57 K, 19917 kPa	0.08242 W/m/K
183.57 K, 21616 kPa	0.0827 W/m/K
183.57 K, 21619 kPa	0.08258 W/m/K
183.58 K, 13189 kPa	0.08088 W/m/K and 0.0813 W/m/K
183.86 K, 13353 kPa	0.08129 W/m/K
183.86 K, 13354 kPa	0.08129 W/m/K
183.88 K, 417 kPa	0.07826 W/m/K
183.88 K, 441 kPa	0.07853 W/m/K
183.88 K, 6566 kPa	0.0801 W/m/K
183.88 K, 6568 kPa	0.07993 W/m/K
183.9 K, 66 kPa	0.07888 W/m/K
183.96 K, 21629 kPa	0.08212 W/m/K
183.97 K, 19889 kPa	0.08191 W/m/K
183.97 K, 19910 kPa	0.08222 W/m/K
183.97 K, 21622 kPa	0.0819 W/m/K
183.98 K, 13198 kPa	0.08092 W/m/K
183.98 K, 13202 kPa	0.08101 W/m/K
184.26 K, 13357 kPa	0.08106 W/m/K
184.26 K, 13366 kPa	0.08106 W/m/K
184.29 K, 6565 kPa	0.07964 W/m/K
184.29 K, 6575 kPa	0.07978 W/m/K
184.31 K, 72 kPa	0.07867 W/m/K
184.31 K, 77 kPa	0.07869 W/m/K
184.34 K, 428 kPa	0.07819 W/m/K
184.34 K, 453 kPa	0.0783 W/m/K
184.41 K, 19891 kPa	0.08157 W/m/K
184.41 K, 19917 kPa	0.08156 W/m/K
184.41 K, 21623 kPa	0.08222 W/m/K
184.41 K, 21641 kPa	0.08226 W/m/K
184.43 K, 13196 kPa	0.0804 W/m/K
184.43 K, 13197 kPa	0.08067 W/m/K
184.7 K, 13354 kPa	0.08048 W/m/K
184.71 K, 13360 kPa	0.0804 W/m/K
184.74 K, 6561 kPa	0.07906 W/m/K
184.74 K, 6562 kPa	0.07913 W/m/K
184.76 K, 74 kPa	0.07764 W/m/K
184.77 K, 70 kPa	0.07835 W/m/K
191.32 K, 109 kPa	0.078 W/m/K
191.32 K, 120 kPa	0.07787 W/m/K
191.32 K, 6011 kPa	0.07821 W/m/K
191.32 K, 6012 kPa	0.0792 W/m/K
191.32 K, 9411 kPa	0.08012 W/m/K
191.33 K, 9419 kPa	0.07979 W/m/K
191.63 K, 28269 kPa	0.08273 W/m/K
191.63 K, 28273 kPa	0.08292 W/m/K
191.63 K, 36162 kPa	0.08425 W/m/K
191.64 K, 36124 kPa	0.08408 W/m/K
191.64 K, 44196 kPa	0.08537 W/m/K
191.64 K, 44213 kPa	0.08541 W/m/K
191.64 K, 52630 kPa	0.08621 W/m/K
191.65 K, 52615 kPa	0.08649 W/m/K
191.65 K, 61105 kPa	0.08792 W/m/K
191.65 K, 61123 kPa	0.08784 W/m/K
191.65 K, 67633 kPa	0.08918 W/m/K
191.65 K, 67642 kPa	0.08859 W/m/K
191.66 K, 154 kPa	0.07783 W/m/K
191.66 K, 6412 kPa	0.07892 W/m/K
191.66 K, 6427 kPa	0.07902 W/m/K
191.66 K, 13243 kPa	0.0804 W/m/K
191.66 K, 13255 kPa	0.08025 W/m/K
191.66 K, 20239 kPa	0.08175 W/m/K
191.66 K, 20246 kPa	0.08164 W/m/K
191.67 K, 112 kPa	0.07744 W/m/K
191.67 K, 147 kPa	0.07786 W/m/K
191.67 K, 6032 kPa	0.07883 W/m/K
191.67 K, 9411 kPa	0.07946 W/m/K
191.67 K, 9418 kPa	0.07986 W/m/K
191.68 K, 121 kPa	0.07734 W/m/K
191.68 K, 6013 kPa	0.07908 W/m/K
192 K, 28272 kPa	0.08275 W/m/K
192 K, 36150 kPa	0.084 W/m/K
192 K, 36164 kPa	0.08417 W/m/K
192 K, 44217 kPa	0.08526 W/m/K
192 K, 52622 kPa	0.08646 W/m/K
192 K, 52639 kPa	0.08637 W/m/K
192 K, 61093 kPa	0.08779 W/m/K
192 K, 67605 kPa	0.08855 W/m/K
192.01 K, 28268 kPa	0.08282 W/m/K
192.01 K, 44219 kPa	0.08526 W/m/K
192.01 K, 61086 kPa	0.08772 W/m/K
192.01 K, 67622 kPa	0.08858 W/m/K
192.04 K, 6436 kPa	0.07895 W/m/K
192.04 K, 13246 kPa	0.08024 W/m/K
192.04 K, 13262 kPa	0.08043 W/m/K
192.04 K, 20234 kPa	0.08155 W/m/K
192.05 K, 6439 kPa	0.07899 W/m/K
192.05 K, 20236 kPa	0.0816 W/m/K
192.06 K, 157 kPa	0.07749 W/m/K
192.06 K, 162 kPa	0.07742 W/m/K
192.06 K, 9415 kPa	0.07961 W/m/K
192.06 K, 9425 kPa	0.07956 W/m/K
192.07 K, 124 kPa	0.07716 W/m/K
192.07 K, 6029 kPa	0.07889 W/m/K
192.07 K, 6037 kPa	0.07899 W/m/K
192.08 K, 123 kPa	0.07723 W/m/K
192.39 K, 61059 kPa	0.08761 W/m/K
192.39 K, 67589 kPa	0.08872 W/m/K
192.4 K, 44218 kPa	0.08528 W/m/K
192.4 K, 52626 kPa	0.08558 W/m/K
192.4 K, 61080 kPa	0.08772 W/m/K
192.4 K, 67603 kPa	0.08923 W/m/K
192.41 K, 28286 kPa	0.08272 W/m/K
192.41 K, 36171 kPa	0.08404 W/m/K
192.41 K, 44213 kPa	0.08463 W/m/K
192.41 K, 52617 kPa	0.08563 W/m/K
192.42 K, 28275 kPa	0.08201 W/m/K
192.42 K, 36146 kPa	0.08395 W/m/K
192.45 K, 20243 kPa	0.08132 W/m/K
192.46 K, 20239 kPa	0.08136 W/m/K
192.47 K, 13253 kPa	0.08039 W/m/K
192.47 K, 13262 kPa	0.08013 W/m/K
192.48 K, 6426 kPa	0.07848 W/m/K
192.48 K, 6434 kPa	0.07874 W/m/K
192.49 K, 9414 kPa	0.0792 W/m/K
192.5 K, 157 kPa	0.07741 W/m/K
192.5 K, 161 kPa	0.07715 W/m/K
192.5 K, 6046 kPa	0.07875 W/m/K and 0.07884 W/m/K
192.5 K, 9410 kPa	0.07887 W/m/K
192.51 K, 147 kPa	0.0771 W/m/K
192.52 K, 131 kPa	0.07714 W/m/K
192.82 K, 67573 kPa	0.08822 W/m/K
192.82 K, 67584 kPa	0.08836 W/m/K
192.83 K, 52603 kPa	0.08551 W/m/K
192.83 K, 61059 kPa	0.08671 W/m/K
192.83 K, 61067 kPa	0.08703 W/m/K
192.84 K, 44211 kPa	0.08516 W/m/K
192.84 K, 52611 kPa	0.08588 W/m/K
192.85 K, 44221 kPa	0.08537 W/m/K
192.86 K, 36164 kPa	0.08389 W/m/K and 0.08381 W/m/K
192.87 K, 28295 kPa	0.08266 W/m/K
192.87 K, 28317 kPa	0.08252 W/m/K
192.92 K, 20232 kPa	0.08125 W/m/K
192.92 K, 20252 kPa	0.08125 W/m/K
192.94 K, 13254 kPa	0.08003 W/m/K
192.96 K, 6419 kPa	0.07805 W/m/K
192.96 K, 6437 kPa	0.07805 W/m/K
